Source: PubChem BioAssay AID1745844 (Carcinogenic Potency Database (CPDB), 2022)
Where “and” joins values, the source holds several entries; their conditions need not be identical. Equal entries are not always repeated. Calls of active or inactive are those of the source. The rule behind the calls is not given here.

System: rodent lifetime carcinogenesis bioassay, tumor incidence TD50
Test: chronic cancer bioassays in animals – CPDB, compiled studies (AID 1745844)
[1] = mouse, strain Charles River CD1, females, in drinking water, site: all sites, lesion: all vascular tumors, dosed 52 weeks, study length 52 weeks
[2] = mouse, strain Charles River CD1, males, in drinking water, site: all sites, lesion: all vascular tumors, dosed 52 weeks, study length 52 weeks
[3] = mouse, strain Charles River CD1, males, in drinking water, site: liver, lesion: hepatocellular carcinoma, dosed 52 weeks, study length 52 weeks
[4] = mouse, strain Charles River CD1, males, in drinking water, site: liver, lesion: several types, types named in the paper, dosed 52 weeks, study length 52 weeks
[5] = mouse, strain Charles River CD1, males, in drinking water, site: lung, lesion: alveolar/bronchiolar adenoma, dosed 52 weeks, study length 52 weeks

## CN(C)N
hamster, strain Syrian Golden, females, in drinking water, site: blood vessels, lesion: several types, types named in the paper, dosed 79 weeks, study length 79 weeks
  TD50: 620 mg/kg/day
hamster, strain Syrian Golden, females, in drinking water, site: cecum, lesion: several types, types named in the paper, dosed 79 weeks, study length 79 weeks
  TD50: 104 mg/kg/day
hamster, strain Syrian Golden, females, in drinking water, site: liver, lesion: several types, types named in the paper, dosed 79 weeks, study length 79 weeks
  TD50: 620 mg/kg/day
hamster, strain Syrian Golden, males, in drinking water, site: blood vessels, lesion: several types, types named in the paper, dosed 91 weeks, study length 91 weeks
  TD50: 183 mg/kg/day
hamster, strain Syrian Golden, males, in drinking water, site: cecum, lesion: adenocarcinoma, dosed 91 weeks, study length 91 weeks
  TD50: 322 mg/kg/day
hamster, strain Syrian Golden, males, in drinking water, site: cecum, lesion: polypoid adenoma, dosed 91 weeks, study length 91 weeks
  TD50: 372 mg/kg/day
hamster, strain Syrian Golden, males, in drinking water, site: cecum, lesion: several types, types named in the paper, dosed 91 weeks, study length 91 weeks
  TD50: 155 mg/kg/day
hamster, strain Syrian Golden, males, in drinking water, site: liver, lesion: angioma, dosed 91 weeks, study length 91 weeks
  TD50: 975 mg/kg/day
hamster, strain Syrian Golden, males, in drinking water, site: liver, lesion: angiosarcoma, dosed 91 weeks, study length 91 weeks
  TD50: 242 mg/kg/day
hamster, strain Syrian Golden, males, in drinking water, site: liver, lesion: several types, types named in the paper, dosed 91 weeks, study length 91 weeks
  TD50: 183 mg/kg/day
[1]
  TD50: 26 mg/kg/day
  carcinogen call: negative (inactive)
mouse, strain Charles River CD1, females, in drinking water, site: all sites, lesion: all vascular tumors, dosed 104 weeks, study length 104 weeks
  TD50: 11.1 mg/kg/day
mouse, strain Charles River CD1, females, in drinking water, site: all sites, lesion: hemangioma, dosed 52 weeks, study length 52 weeks
  TD50: 39.7 mg/kg/day
mouse, strain Charles River CD1, females, in drinking water, site: all sites, lesion: hemangiosarcoma, dosed 52 weeks, study length 52 weeks
  TD50: 80.8 mg/kg/day
mouse, strain Charles River CD1, females, in drinking water, site: liver, lesion: all vascular tumors, dosed 52 weeks, study length 52 weeks
  TD50: 26 mg/kg/day
mouse, strain Charles River CD1, females, in drinking water, site: liver, lesion: hemangioma, dosed 52 weeks, study length 52 weeks
  TD50: 39.7 mg/kg/day
mouse, strain Charles River CD1, females, in drinking water, site: liver, lesion: hemangiosarcoma, dosed 52 weeks, study length 52 weeks
  TD50: 80.8 mg/kg/day
mouse, strain Charles River CD1, females, in drinking water, site: liver, lesion: hepatocellular adenoma, dosed 104 weeks, study length 104 weeks
  TD50: 98.7 mg/kg/day and 63.6 mg/kg/day
mouse, strain Charles River CD1, females, in drinking water, site: liver, lesion: hepatocellular carcinoma, dosed 104 weeks, study length 104 weeks
  TD50: 340 mg/kg/day
mouse, strain Charles River CD1, females, in drinking water, site: liver, lesion: one or several types, types not named, dosed 52 weeks, study length 52 weeks
  carcinogen call: negative (inactive)
mouse, strain Charles River CD1, females, in drinking water, site: liver, lesion: several types, types named in the paper, dosed 104 weeks, study length 104 weeks
  TD50: 74.7 mg/kg/day
mouse, strain Charles River CD1, females, in drinking water, site: lung, lesion: alveolar/bronchiolar carcinoma, dosed 52 weeks, study length 52 weeks
  TD50: 81.5 mg/kg/day
mouse, strain Charles River CD1, females, in drinking water, site: lung, lesion: several types, types named in the paper, dosed 52 weeks, study length 52 weeks
  TD50: 3.68 mg/kg/day
[2]
  TD50: 12.6 mg/kg/day
  carcinogen call: negative (inactive)
mouse, strain Charles River CD1, males, in drinking water, site: all sites, lesion: all vascular tumors, dosed 104 weeks, study length 104 weeks
  TD50: 6.13 mg/kg/day
mouse, strain Charles River CD1, males, in drinking water, site: all sites, lesion: hemangioma, dosed 52 weeks, study length 52 weeks
  TD50: 33.4 mg/kg/day
mouse, strain Charles River CD1, males, in drinking water, site: all sites, lesion: hemangioma, dosed 104 weeks, study length 104 weeks
  TD50: 339 mg/kg/day
mouse, strain Charles River CD1, males, in drinking water, site: all sites, lesion: hemangiosarcoma, dosed 52 weeks, study length 52 weeks
  TD50: 21.7 mg/kg/day
mouse, strain Charles River CD1, males, in drinking water, site: liver, lesion: all vascular tumors, dosed 52 weeks, study length 52 weeks
  TD50: 12.6 mg/kg/day
mouse, strain Charles River CD1, males, in drinking water, site: liver, lesion: all vascular tumors, dosed 104 weeks, study length 104 weeks
  TD50: 6.47 mg/kg/day
mouse, strain Charles River CD1, males, in drinking water, site: liver, lesion: hemangioma, dosed 52 weeks, study length 52 weeks
  TD50: 33.4 mg/kg/day
mouse, strain Charles River CD1, males, in drinking water, site: liver, lesion: hemangioma, dosed 104 weeks, study length 104 weeks
  TD50: 339 mg/kg/day
mouse, strain Charles River CD1, males, in drinking water, site: liver, lesion: hemangiosarcoma, dosed 52 weeks, study length 52 weeks
  TD50: 21.7 mg/kg/day
mouse, strain Charles River CD1, males, in drinking water, site: liver, lesion: hepatocellular adenoma, dosed 52 weeks, study length 52 weeks
  TD50: 26.7 mg/kg/day (inactive)
[3]
  TD50: 10.8 mg/kg/day
  carcinogen call: negative (inactive)
mouse, strain Charles River CD1, males, in drinking water, site: liver, lesion: hepatocellular carcinoma, dosed 104 weeks, study length 104 weeks
  TD50: 11.9 mg/kg/day and 33.4 mg/kg/day
[4]
  TD50: 6.28e+06 mg/kg/day
  carcinogen call: negative (inactive)
[5]
  TD50: 5.18 mg/kg/day
  carcinogen call: negative (inactive)
mouse, strain Charles River CD1, males, in drinking water, site: lung, lesion: alveolar/bronchiolar carcinoma, dosed 52 weeks, study length 52 weeks
  TD50: 67.4 mg/kg/day
mouse, strain Charles River CD1, males, in drinking water, site: lung, lesion: alveolar/bronchiolar carcinoma, dosed 104 weeks, study length 104 weeks
  TD50: 89 mg/kg/day and 33.4 mg/kg/day
mouse, strain Charles River CD1, males, in drinking water, site: lung, lesion: several types, types named in the paper, dosed 52 weeks, study length 52 weeks
  TD50: 4.33 mg/kg/day
mouse, strain Charles River CD1, males, in drinking water, site: lung, lesion: several types, types named in the paper, dosed 104 weeks, study length 104 weeks
  TD50: 39.6 mg/kg/day and 26.4 mg/kg/day
mouse, strain Swiss albino, females, in drinking water, site: blood vessels, lesion: angiosarcoma, dosed 72 weeks, study length 72 weeks
  TD50: 3.57 mg/kg/day
mouse, strain Swiss albino, females, in drinking water, site: blood vessels, lesion: several types, types named in the paper, dosed 72 weeks, study length 72 weeks
  TD50: 3.65 mg/kg/day
mouse, strain Swiss albino, females, in drinking water, site: kidney, lesion: adenoma, dosed 72 weeks, study length 72 weeks
  TD50: 148 mg/kg/day
mouse, strain Swiss albino, females, in drinking water, site: lung, lesion: adenocarcinoma, dosed 72 weeks, study length 72 weeks
  TD50: 51.6 mg/kg/day
mouse, strain Swiss albino, females, in drinking water, site: lung, lesion: adenoma, dosed 72 weeks, study length 72 weeks
  TD50: 5.58 mg/kg/day
mouse, strain Swiss albino, females, in drinking water, site: lung, lesion: several types, types named in the paper, dosed 72 weeks, study length 72 weeks
  TD50: 5.69 mg/kg/day
mouse, strain Swiss albino, males, in drinking water, site: blood vessels, lesion: angiosarcoma, dosed 62 weeks, study length 62 weeks
  TD50: 2.09 mg/kg/day
mouse, strain Swiss albino, males, in drinking water, site: blood vessels, lesion: several types, types named in the paper, dosed 62 weeks, study length 62 weeks
  TD50: 2.11 mg/kg/day
mouse, strain Swiss albino, males, in drinking water, site: kidney, lesion: adenoma, dosed 62 weeks, study length 62 weeks
  TD50: 19.5 mg/kg/day
mouse, strain Swiss albino, males, in drinking water, site: liver, lesion: hepatoma, dosed 62 weeks, study length 62 weeks
  TD50: 30.4 mg/kg/day
mouse, strain Swiss albino, males, in drinking water, site: lung, lesion: adenocarcinoma, dosed 62 weeks, study length 62 weeks
  TD50: 46.6 mg/kg/day
mouse, strain Swiss albino, males, in drinking water, site: lung, lesion: adenoma, dosed 62 weeks, study length 62 weeks
  TD50: 2.62 mg/kg/day
mouse, strain Swiss albino, males, in drinking water, site: lung, lesion: several types, types named in the paper, dosed 62 weeks, study length 62 weeks
  TD50: 2.62 mg/kg/day
mouse, strain Swiss, females, by gavage, site: lung, lesion: one or several types, types not named, dosed 40 weeks, study length 55 weeks
  TD50: 16 mg/kg/day
rat, strain Fischer 344, females, in drinking water, site: liver, lesion: hemangioma, dosed 52 weeks, study length 52 weeks
  carcinogen call: negative (inactive)
rat, strain Fischer 344, females, in drinking water, site: liver, lesion: hepatocellular adenoma, dosed 104 weeks, study length 104 weeks
  TD50: 184 mg/kg/day (inactive)
rat, strain Fischer 344, females, in drinking water, site: liver, lesion: hepatocellular carcinoma, dosed 104 weeks, study length 104 weeks
  TD50: 40.7 mg/kg/day (inactive)
rat, strain Fischer 344, females, in drinking water, site: liver, lesion: several types, types named in the paper, dosed 104 weeks, study length 104 weeks
  TD50: 30.9 mg/kg/day (inactive)
rat, strain Fischer 344, females, in drinking water, site: pituitary gland, lesion: adenoma, dosed 104 weeks, study length 104 weeks
  TD50: 14.8 mg/kg/day (inactive)
rat, strain Fischer 344, males, in drinking water, site: liver, lesion: hepatocellular adenoma, dosed 104 weeks, study length 104 weeks
  TD50: 205 mg/kg/day (inactive)
rat, strain Fischer 344, males, in drinking water, site: liver, lesion: hepatocellular carcinoma, dosed 104 weeks, study length 104 weeks
  TD50: 650 mg/kg/day (inactive)
rat, strain Fischer 344, males, in drinking water, site: liver, lesion: one or several types, types not named, dosed 52 weeks, study length 52 weeks
  carcinogen call: negative (inactive)
rat, strain Fischer 344, males, in drinking water, site: liver, lesion: several types, types named in the paper, dosed 104 weeks, study length 104 weeks
  TD50: 155 mg/kg/day (inactive)

## OCCN(CCO)C(=S)S
mouse, strain B6AKF1, females, oral dosing, site: any site (literature study), lesion: several types, types named in the paper, dosed 79 weeks, study length 79 weeks
  TD50: 138 mg/kg/day
mouse, strain B6AKF1, females, oral dosing, site: liver, lesion: hepatoma, dosed 79 weeks, study length 79 weeks
  TD50: 298 mg/kg/day
mouse, strain B6AKF1, females, oral dosing, site: lung, lesion: adenoma, dosed 79 weeks, study length 79 weeks
  TD50: 850 mg/kg/day
mouse, strain B6AKF1, males, oral dosing, site: any site (literature study), lesion: several types, types named in the paper, dosed 79 weeks, study length 79 weeks
  TD50: 45.6 mg/kg/day
mouse, strain B6AKF1, males, oral dosing, site: liver, lesion: hepatoma, dosed 79 weeks, study length 79 weeks
  TD50: 41.5 mg/kg/day
mouse, strain B6C3F1, females, oral dosing, site: any site (literature study), lesion: several types, types named in the paper, dosed 79 weeks, study length 79 weeks
  TD50: 48.4 mg/kg/day
mouse, strain B6C3F1, females, oral dosing, site: liver, lesion: hepatoma, dosed 79 weeks, study length 79 weeks
  TD50: 56.4 mg/kg/day
mouse, strain B6C3F1, females, oral dosing, site: lung, lesion: adenoma, dosed 79 weeks, study length 79 weeks
  TD50: 1080 mg/kg/day
mouse, strain B6C3F1, males, oral dosing, site: any site (literature study), lesion: several types, types named in the paper, dosed 79 weeks, study length 79 weeks
  TD50: 27.8 mg/kg/day
mouse, strain B6C3F1, males, oral dosing, site: liver, lesion: hepatoma, dosed 79 weeks, study length 79 weeks
  TD50: 34.5 mg/kg/day

## C=CC(OC(C)=O)c1ccc2c(c1)OCO2 (stereo unspecified)
rat, strain Charles River CD (Sprague-Dawley), males, in feed, site: any site (literature study), lesion: several types, types named in the paper, dosed 36 weeks, study length 52 weeks
  TD50: 21.1 mg/kg/day
rat, strain Charles River CD (Sprague-Dawley), males, in feed, site: any site (literature study), lesion: several types, types named in the paper, dosed 47 weeks, study length 69 weeks
  TD50: 32.4 mg/kg/day
rat, strain Charles River CD (Sprague-Dawley), males, in feed, site: forestomach, lesion: papilloma, dosed 36 weeks, study length 52 weeks
  TD50: 21.1 mg/kg/day
rat, strain Charles River CD (Sprague-Dawley), males, in feed, site: forestomach, lesion: papilloma, dosed 47 weeks, study length 69 weeks
  TD50: 30.7 mg/kg/day
rat, strain Charles River CD (Sprague-Dawley), males, in feed, site: liver, lesion: carcinoma, dosed 47 weeks, study length 69 weeks
  carcinogen call: negative (inactive)
rat, strain Charles River CD (Sprague-Dawley), males, in feed, site: liver, lesion: hepatocellular carcinoma, dosed 36 weeks, study length 52 weeks
  TD50: 348 mg/kg/day (inactive)
